Measurements as given in patent US20200354331A1, “ICARIIN DERIVATIVES” (H. LEE MOFFITT CANCER CENTER AND RESEARCH INSTITUTE, INC., priority 2014, published 2020).
“Also recorded” adds a separate entry of the source. Where two headings read alike, the source gives them in different places.

Columns and labels:
[1] = test system: SIGLEC3; experiment: SIGLEC3/CD33 expression on PBMC (Q-PCR, flow cytometry); format: cell-based, human; conditions: healthy PBMC, 48 hours; for SIGLEC3 mRNA and protein expression: 1 μM (Q-PCR)
Description: FIG. 4 depicts the down-regulation of the RNA expression of SIGLEC3 on PBMCs due to ICA and ICT. Healthy PBMC were cultured for 48 hours with 1 μM of DMSO, ICA or ICT and the expression of SIGLEC3 was measured by Q-PCR and analyzed by the AACt method. Error bars indicate SEM.
FIG. 5 depicts the effect of ICT on the expression of SIGLEC3 and SIGLEC5 on PBMC. PBMC from healthy donors were treated for 48 hours with DMSO or ICT and stained extra-cellularly with SIGLEC3-PE and SIGLEC5/14-APC antibodies (BD biosciences).
SIGLEC3 is highly expressed in MDSCs isolated from patients with AML (FIG. 6a). […] Specifically, healthy PBMC were cultured for 48 hours with 1 μM of DMSO, ICA or ICT and the expression of SIGLEC3 was measured by Q-PCR and analyzed by the MCt method. Also, PBMC from healthy donors were treated for 48 hours with DMSO or ICT and stained extra-cellularly with SIGLEC3-PE and SIGLEC5/14-APC antibodies (BD biosciences). S100A9 can ligate with SIGLEC3, denoting the presence of an uncharacterized pathway that could be linked to the identification of specific strategies targeting the regulation of MDSC activation.
Healthy PBMC were cultured for 48 hours with […] of the PDE5 inhibitor ICT and the expression of SIGLEC3 measured by the DDCt method. The experimental control is PBMC treated with DMSO and the internal control was GAPDH. Error bars indicate the SEM of three separate donors/experiments.

[2] = test system: MDSCs isolated from tumors of 4T1 tumor-bearing mice; experiment: ROS and NO production of MDSC isolated from tumors; format: cell-based; conditions: MDSCs from tissue of tumor-bearing mice, 20 μM, 48 h
Description: FIGS. 3A-3C depicts the effect of ICA and ICT on expansion of MDSCs isolated from tumor and their ROS and NO production. Gr1^+ cells were isolated from tumors of 4T1 tumor-bearing mice. (FIG. 3A) MDSCs were treated with 20 μM of ICA, ICT, or DMSO for 48 h. Bars represent the relative percentage of MDSC as compared to DMSO treated cells measured by flow cytometry. (FIG. 3B) Production of ROS and (FIG. 3C) NO activity of purified MDSC from tumor tissue.
(§1) Specifically, BMNCs from three healthy donors were treated with different concentrations of ICA or ICT for 48 hours after which colony formation was assessed using MethoCult H4434 complete medium with cytokines. The mixture was placed in 35-mm culture dishes (1×10^5 cells/each dish) and incubated at 37° C. in 5% CO2 for approximately 7-14 days. After incubation, colonies of CFU-E, BFU-E and CFU-GM were indentified and counted using an inverted light microscope. […] Although, these cells were obtained from spleens, it was also found ICA/ICT has a similar effect on MDSCs isolated from tumor tissue. Here, Gr1^+ cells were isolated from tumors of 4T1 tumor-bearing mice. […] Bars represent the relative percentage of MDSC as compared to DMSO treated cells measured by flow cytometry (FIG. 3A). The production of ROS (FIG. 3B) and NO (FIG. 3C) activity of purified MDSC from tumor tissue was also measured.

[3] = test system: Bone marrow; experiment: IC50 / toxicity in cells; format: cell-based; conditions: Mus musculus
Description: Specifically, BMNCs from three healthy donors were treated with different concentrations of ICA or ICT for 48 hours after which colony formation was assessed using MethoCult H4434 complete medium with cytokines. The mixture was placed in 35-mm culture dishes (1×10^5 cells/each dish) and incubated at 37° C. in 5% CO2 for approximately 7-14 days. After incubation, colonies of CFU-E, BFU-E and CFU-GM were indentified and counted using an inverted light microscope. […] Although, these cells were obtained from spleens, it was also found ICA/ICT has a similar effect on MDSCs isolated from tumor tissue. Here, Gr1^+ cells were isolated from tumors of 4T1 tumor-bearing mice. MDSCs were treated with 20 μM of ICA, ICT, or DMSO for 48 h. Bars represent the relative percentage of MDSC as compared to DMSO treated cells measured by flow cytometry (FIG. 3A). The production of ROS (FIG. 3B) and NO (FIG. 3C) activity of purified MDSC from tumor tissue was also measured.

[4] = test system: 4T1 tumors; experiment: 4T1 tumor growth in vivo; design: species or system BALB/c mice; conditions: 100 mg/kg i.p. three times weekly
Description: One of the most striking features of ICA and ICT is their anti-tumorigenic ability in vivo. Seven days post-infection 1 cm diameter 4T1 tumors from 5 mice were established in BALB/c mice. Mice were treated with 100 mg/kg of ICA, ICT or vehicle (i.p.) three times weekly and tumor size (mean and SD) was monitored every 2 to 3 days. The percentages of double-positive Gr-1+CD11b′ MDSCs were determined for spleens of five mice per group. Cell phenotype was evaluated by flow cytometry. […] ICA or ICT on the differentiation of MDSC.

[5] = test system: U937; experiment: IC50 / toxicity in cells; format: cell-based; conditions: Homo sapiens, U-937
[6] = test system: BMNCs from three healthy donors; experiment: Colony formation (CFU-E, BFU-E, CFU-GM) in MethoCult H4434; format: cell-based; conditions: healthy donor BMNCs treated 48 hours, different concentrations
Description: FIG. 2 depicts the effect, or lack thereof, of ICA and ICT on hematopoiesis. BMNCs from three healthy donors were treated with ICA or ICT for 48 hours after which colony formation was assessed using MethoCult H4434 complete medium with cytokines. CFU-E, BFU-E and CFU-GM were indentified and counted using an inverted light microscope. Each bar represents the mean results of three individuals with duplicate plates. Results are expressed as means±SD.
as §1

[7] = molecular target: GMP-specific recombinant bovine phosphodiesterase Type V (Bos taurus, UniProt Q28156); experiment: PDE5 phosphodiesterase inhibition, PDE-Glo system; format: biochemical
[8] = molecular target: T1, PP2A bound to PDE5 (Homo sapiens, UniProt O76074); experiment: Co-immunoprecipitation of PDE5 with PP2A in PBMC; format: cell-based; conditions: 48 hours
T1 construct: Cells were then lysed and PDE5 was immunoprecipitated following a Western Blot with anti-PP2A; endogenous in cells; host or cells: human PBMC
Description: Human PBMC were cultured for 48 hours with media, DMSO or increasing doses of ICT (1, 5, 10, 20 μM respectively). Cells were then lysed and PDE5 was immunoprecipitated following a Western Blot with anti-PP2A. Coomasie blue staining of the membrane is shown as loading control.
(§2) To understand if there is a link correlating S100A9/SIGLEC3 and PDE5 activation, SJCRH30 cells were transfected with either vector, S100A9 or SIGLEC 3. Seventy two hours post-transfection cells were lysed and assessed by Western Blot for either PDE5 or its phosphorylated counterpart.

[9] = molecular target: T2, PP2A (Homo sapiens, UniProt P67775); experiment: PP2A activity in PBMC lysates, in vitro phosphatase assay kit; format: cell-based; conditions: 48 hours, 1 μM
T2 construct: endogenous in cells; host or cells: human PBMC
T2 sequence (P67775 whole entry): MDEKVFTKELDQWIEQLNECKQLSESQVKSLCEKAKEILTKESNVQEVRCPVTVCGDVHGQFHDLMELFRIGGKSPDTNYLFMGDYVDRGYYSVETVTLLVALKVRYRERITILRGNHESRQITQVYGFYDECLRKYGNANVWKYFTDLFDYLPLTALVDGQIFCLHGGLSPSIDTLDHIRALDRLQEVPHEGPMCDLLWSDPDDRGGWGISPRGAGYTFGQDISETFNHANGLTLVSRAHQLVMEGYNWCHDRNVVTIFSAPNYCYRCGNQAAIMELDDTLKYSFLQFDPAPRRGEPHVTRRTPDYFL
Description: FIG. 9 depicts the effect of ICA and ICT on the activity of PP2A. Human PBMC were cultured for 48 hours with media, DMSO, 1 μM of ICA or ICT. The cell lysates were used to analyze PP2A activity using a commercial in vitro phosphatase assay kit (Millipore). Error bars represent the SEM of three separate experiments.
as §2, with “counterpart. […] This represents a new pathway of MDSC activation that can be specifically targeted by ICA, ICT, and their derivatives disclosed herein.” for “counterpart.”

[10] = test system: PBMC; experiment: IC50 / toxicity in cells; format: cell-based

Row | SMILES | SIGLEC3 mRNA and protein expression [1] | NO and ROS production by MDSCs [2] | IC50 ([3]; BMMC) [µM] | tumor growth in vivo [4] | IC50 [5] [µM] | effect on hematopoiesis (colony formation) [6] | phosphodiesterase (enzymatic) activity of PDE5 [7] | association of PP2A with PDE5 [8] | phosphatase activity of PP2A [9] | IC50 [10] [µM] | expression of CD33 on PBMC ([1]; 20 μM) | IC50 ([3]; Bone marrow (bone marrow mononuclear cells, BMMC), read-out: IC50) [µM] | IC50 ([5]; U937, read-out: IC50) [µM] | IC50 ([10]; read-out: IC50) [µM]
1 | COc1ccc(-c2oc3c(CC=C(C)C)c(O[C@@H]4O[C@H](CO)[C@@H](O)[C@H](O)[C@H]4O)cc(O)c3c(=O)c2O[C@@H]2O[C@@H](C)[C@H](O)[C@@H](O)[C@H]2O)cc1 [ICA, Icariin] | down-regulating SIGLEC3 at both the mRNA and protein expression levels | inhibit NO and ROS production | > 100 | inhibit tumor growth in vivo | > 100 | do not affect hematopoiesis | block the phosphodiesterase activity of PDE5; also recorded: inhibit the enzymatic activity of PDE5 | decreased | up-regulate the phosphatase activity of PP2A in vitro | > 100 |  |  |  | 
2 | COc1ccc(-c2oc3c(CCC(C)(C)O)c(O)cc(O)c3c(=O)c2O)cc1 [ICT, 3,5,7-trihydroxy-4′-methoxy-8-(3-hydroxy-3-methylbutyl)-flavone] | down-regulating SIGLEC3 at both the mRNA and protein expression levels | inhibit NO and ROS production |  | inhibit tumor growth in vivo |  | do not affect hematopoiesis | block the phosphodiesterase activity of PDE5; also recorded: inhibit the enzymatic activity of PDE5 | decreased | up-regulate the phosphatase activity of PP2A in vitro |  | down-regulate the expression of CD33 on PBMC | > 100 | > 100 | > 100
